In the test the target is Disintegrin and metalloproteinase domain-containing protein 17 (Homo sapiens, UniProt P78536). Briefly: Inhibition of recombinant TACE catalytic domain (unknown origin) using Abz-LAQAVRSSSR-Dpa as substrate preincubated for 10 mins followed by substrate addition measured after 10 mins by FRET assay.
Sequence of Disintegrin and metalloproteinase domain-containing protein 17 (P78536 whole entry, the tested form may be a part): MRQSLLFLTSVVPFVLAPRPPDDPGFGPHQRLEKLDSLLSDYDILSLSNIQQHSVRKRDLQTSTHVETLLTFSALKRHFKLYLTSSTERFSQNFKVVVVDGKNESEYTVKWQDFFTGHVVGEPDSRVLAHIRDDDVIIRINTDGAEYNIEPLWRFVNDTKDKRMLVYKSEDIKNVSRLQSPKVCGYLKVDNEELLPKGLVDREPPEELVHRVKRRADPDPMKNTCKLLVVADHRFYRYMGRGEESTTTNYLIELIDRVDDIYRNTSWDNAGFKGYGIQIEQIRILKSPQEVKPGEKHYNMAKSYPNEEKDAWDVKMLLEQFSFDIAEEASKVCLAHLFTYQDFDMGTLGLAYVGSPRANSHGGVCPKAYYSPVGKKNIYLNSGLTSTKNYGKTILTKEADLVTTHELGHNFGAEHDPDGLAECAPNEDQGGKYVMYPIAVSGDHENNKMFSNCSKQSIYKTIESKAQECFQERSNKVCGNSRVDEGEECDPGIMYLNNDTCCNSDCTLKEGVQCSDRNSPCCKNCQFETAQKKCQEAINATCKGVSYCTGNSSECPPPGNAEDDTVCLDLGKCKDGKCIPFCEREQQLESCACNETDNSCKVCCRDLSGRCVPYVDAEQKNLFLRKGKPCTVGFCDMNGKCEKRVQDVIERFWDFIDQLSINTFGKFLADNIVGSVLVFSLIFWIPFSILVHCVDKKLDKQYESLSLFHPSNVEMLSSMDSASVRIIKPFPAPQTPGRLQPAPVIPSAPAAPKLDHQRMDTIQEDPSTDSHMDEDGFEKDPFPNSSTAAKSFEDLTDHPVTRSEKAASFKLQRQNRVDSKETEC

With `C#CCN1C[C@H](C(=O)NO)[C@H](NS(=O)(=O)c2ccc(OCc3cc(C)nc4ccccc34)cc2)C1`, the IC50 stood at 0.7 nM.

(Values after BindingDB's records for doi:10.1016/j.bmcl.2017.02.035 (Nestl&#65533, 2017).)
